For experiment [1], the target named is T1, human PPARα (Homo sapiens, UniProt Q07869).
T1 construct: expressed in transfected cells; host or cells: Cos-7 cells (ATCC, CRL-1651)
T1 sequence (Q07869 239-466 limits assumed): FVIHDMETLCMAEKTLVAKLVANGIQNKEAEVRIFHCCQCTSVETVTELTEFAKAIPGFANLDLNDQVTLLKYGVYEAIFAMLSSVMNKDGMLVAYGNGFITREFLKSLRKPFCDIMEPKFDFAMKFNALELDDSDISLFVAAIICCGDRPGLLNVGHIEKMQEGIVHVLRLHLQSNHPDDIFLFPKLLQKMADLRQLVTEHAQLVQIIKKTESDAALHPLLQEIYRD
The experiment can be described thus: Reporter gene transactivation, hPPAR-GAL4 alpha. The class given is cell-based. To be noted: transfected Cos-7 cells, Gal-4 luciferase reporter, 24 hours treatment. A general note: A reporter such as luciferase makes a cellular process visible.

Experiment [2] has as its target T2, human PPARγ (Homo sapiens, UniProt P37231).
T2 construct: expressed in transfected cells; host or cells: Cos-7 cells (ATCC, CRL-1651)
T2 sequence (P37231 238-503 limits assumed): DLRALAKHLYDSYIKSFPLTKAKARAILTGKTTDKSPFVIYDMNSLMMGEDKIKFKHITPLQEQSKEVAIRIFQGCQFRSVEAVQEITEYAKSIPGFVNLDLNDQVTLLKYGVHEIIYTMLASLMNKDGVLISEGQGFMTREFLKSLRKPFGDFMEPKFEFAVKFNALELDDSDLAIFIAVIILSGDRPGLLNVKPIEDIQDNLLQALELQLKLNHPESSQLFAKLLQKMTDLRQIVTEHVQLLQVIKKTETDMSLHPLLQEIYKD
The experiment can be described thus: Reporter gene transactivation, hPPAR-GAL4 gamma. The settings on record: transfected Cos-7 cells, Gal-4 luciferase reporter, 24 hours treatment. It counts as cell-based.

The values that follow come from patent US7713971B2, “1,2,4-triazine derivatives, preparation and use thereof in human therapy” (Pierre Fabre Medicament, priority 2005, dated 2010).

Molecules are shown by their SMILES.

A word on the EC50: it is the midpoint of the concentration-response curve. Lower therefore signals greater potency. For the compound `CCCCCCCn1c(=O)c(NCCCCc2cccc(OC(C)(C)C(=O)OCC)c2)nn(CCC#N)c1=O` [Example 86, Ethyl 2-(3-{4-[2-(2-cyano-ethyl)-4-heptyl-3,5-dioxo-2,3,4,5-tetrahydro-[1,2,4]triazin-6-ylamino]-butyl}-phenoxy)-2-methyl-propionate], the EC50 in experiment [1] is greater than 10 µM; in experiment [2], roughly 1 µM.
The corresponding values for `CCCCCCCn1c(=O)c(OCCCc2cccc(OC(C)(C)C(=O)OCC)c2)nn(C)c1=O` [Example 7, Ethyl 2-{3-[3-(4-heptyl-2-methyl-3,5-dioxo-2,3,4,5-tetrahydro-[1,2,4]triazin-6-yloxy)-propyl]-phenoxy}-2-methyl-propionate] are 0.3 to 1 µM and 1 to 3 µM.
The corresponding values for `CCCCCCCn1nc(OCCCCCc2cccc(OC(C)(C)C(=O)OCC)c2)c(=O)n(C)c1=O` [Example 10, Ethyl 2-{3-[5-(2-heptyl-4-methyl-3,5-dioxo-2,3,4,5-tetrahydro-[1,2,4]triazin-6-yloxy)-pentyl]-phenoxy}-2-methyl-propionate] are 0.3 to 1 µM and roughly 1 µM.
Taken in the same sequence, the figures for `CCCCCCCn1nc(N(CCCOc2cccc(OC(C)(C)C(=O)OCC)c2)CCCC(F)(F)F)c(=O)n(C)c1=O` [Example 51, Ethyl 2-(3-{3-[(2-heptyl-4-methyl-3,5-dioxo-2,3,4,5-tetrahydro-[1,2,4]triazin-6-yl)-(4,4,4-trifluoro-butyl)-amino]-propoxy}-phenoxy)-2-methyl-propionate] were 3 to 10 µM and greater than 10 µM.
For the compound `CCOC(=O)C(C)(C)Sc1cccc(CCCCNc2nn(CCCC(F)(F)F)c(=O)n(Cc3ccccc3)c2=O)c1` [Example 100, Ethyl 2-(3-{4-[4-Benzyl-3,5-dioxo-2-(4,4,4-trifluoro-butyl)-2,3,4,5-tetrahydro-[1,2,4]triazin-6-ylamino]-butyl}-phenylsulfanyl)-2-methyl-propionate], the results for the EC50 in experiment [1] and in experiment [2] were 1 to 3 µM and greater than 10 µM, respectively.
Consider `CCCCCCCn1nc(NCCc2cccc(OC(C)(C)C(=O)OCC)c2)c(=O)n(C)c1=O` [Example 57, Ethyl 2-{3-[2-(2-heptyl-4-methyl-3,5-dioxo-2,3,4,5-tetrahydro-[1,2,4]triazin-6-ylamino)-ethyl]-phenoxy}-2-methyl-propionate], for which the EC50 in experiment [1] is roughly 3 µM; in experiment [2], 1 to 3 µM.
Regarding `CCCCCCCn1c(=O)c(NCCCc2cccc(OC(C)(C)C(=O)OCC)c2)nn(Cc2ccccc2)c1=O` [Example 70, Ethyl 2-{3-[3-(2-benzyl-4-heptyl-3,5-dioxo-2,3,4,5-tetrahydro-[1,2,4]triazin-6-ylamino)-propyl]-phenoxy}-2-methyl-propionate], the EC50 was roughly 1 µM in experiment [1] and roughly 10 µM in experiment [2].
Taken in the same sequence, the figures for `CCOC(=O)C(C)(C)Oc1ccc(OCCCNc2nn(CCCC(F)(F)F)c(=O)n(C)c2=O)cc1` [Example 44, Ethyl 2-methyl-2-(4-{3-[4-methyl-3,5-dioxo-2-(4,4,4-trifluoro-butyl)-2,3,4,5-tetrahydro-[1,2,4]triazin-6-ylamino]-propoxy}-phenoxy)-propionate] were greater than 10 µM and 3 to 10 µM.
Taken in the same sequence, the figures for `CCCCCCCn1c(=O)c(OCCCc2cccc(OC(C)(C)C(=O)OCC)c2)nn(CCCC(F)(F)F)c1=O` [Example 8, Ethyl 2-(3-{3-[4-heptyl-3,5-dioxo-2-(4,4,4-trifluoro-butyl)-2,3,4,5-tetrahydro-[1,2,4]triazin-6-yloxy]-propyl}-phenoxy)-2-methyl-propionate] were roughly 0.3 µM and 3 to 10 µM.
Turning to `CCCCCCCn1c(=O)c(OCCCCCc2cccc(OC(C)(C)C(=O)OCC)c2)nn(Cc2ccccc2)c1=O` [Example 19, Ethyl 2-{3-[5-(2-benzyl-4-heptyl-3,5-dioxo-2,3,4,5-tetrahydro-[1,2,4]triazin-6-yloxy)-pentyl]-phenoxy}-2-methyl-propionate], the EC50 in experiment [1] is roughly 3 µM; in experiment [2], 3 to 10 µM.
The corresponding values for `CCCCn1c(=O)c(OCCCCCc2cccc(OC(C)(C)C(=O)O)c2)nn(C)c1=O` [Example 12, 2-{3-[5-(4-Butyl-2-methyl-3,5-dioxo-2,3,4,5-tetrahydro-[1,2,4]triazin-6-yloxy)-pentyl]-phenoxy}-2-methyl-propionic Acid] are roughly 0.03 µM and 1 to 3 µM.
Taken in the same sequence, the figures for `CCCCCCCn1nc(OCCCCOc2cccc(SC(C)(C)C(=O)OCC)c2)c(=O)n(C)c1=O` [Example 37, Ethyl 2-{3-[4-(2-heptyl-4-methyl-3,5-dioxo-2,3,4,5-tetrahydro-[1,2,4]triazin-6-yloxy)-butoxy]-phenylsulfanyl}-2-methyl-propionate] were greater than 10 µM and roughly 10 µM.
Taken in the same sequence, the figures for `CCCCCCCn1nc(OCCOc2ccc(SC(C)(C)C(=O)OCC)cc2)c(=O)n(C)c1=O` [Example 38, Ethyl 2-{4-[2-(2-heptyl-4-methyl-3,5-dioxo-2,3,4,5-tetrahydro-[1,2,4]triazin-6-yloxy)-ethoxy]-phenylsulfanyl}-2-methyl-propionate] were greater than 10 µM and greater than 10 µM.
Consider `CCCCCCCn1nc(NCCCCc2cccc(SC(C)(C)C(=O)OCC)c2)c(=O)n(C)c1=O` [Example 94, Ethyl 2-{3-[4-(2-heptyl-4-methyl-3,5-dioxo-2,3,4,5-tetrahydro-[1,2,4]triazin-6-ylamino)-butyl]-phenylsulfanyl}-2-methyl-propionate], for which the EC50 in experiment [1] and in experiment [2] was 3 to 10 µM each time.
Regarding `CCCCCCCn1nc(OCCCCOc2cccc(OC(C)(C)C(=O)OCC)c2)c(=O)n(C)c1=O` [Example 36, Ethyl 2-{3-[4-(2-heptyl-4-methyl-3,5-dioxo-2,3,4,5-tetrahydro-[1,2,4]triazin-6-yloxy)-butoxy]-phenoxy}-2-methyl-propionate], the EC50 in experiment [1] lay within 0.3 to 1 µM; in experiment [2], 3 to 10 µM.
Take `CCCCCCCn1nc(OCCCOc2cccc(OC(C)(C)C(=O)OCC)c2)c(=O)n(C)c1=O` [Example 33, Ethyl 2-{3-[3-(2-heptyl-4-methyl-3,5-dioxo-2,3,4,5-tetrahydro-[1,2,4]triazin-6-yloxy)-propoxy]-phenoxy}-2-methyl-propionate]: the EC50 in experiment [1] and in experiment [2] was roughly 3 µM in each case.
In the case of `CCCCCCCn1c(=O)c(NCCCCc2cccc(OC(C)(C)C(=O)OCC)c2)nn(C/C=C/C(=O)OCC)c1=O` [Example 87, Ethyl 4-(6-{4-[3-(1-ethoxycarbonyl-1-methyl-ethoxy)-phenyl]-butylamino}-4-heptyl-3,5-dioxo-4,5-dihydro-3H-[1,2,4]triazin-2-yl)-but-2-enonate], the half-maximal effective concentration (EC50) in experiment [1] is roughly 0.3 µM; in experiment [2], 0.1 to 0.3 µM.
Taken in the same sequence, the figures for `CCCCCCCn1nc(NCCCCc2cccc(OC(C)(C)C(=O)OCC)c2)c(=O)n(CCCCCCC)c1=O` [Example 88, Ethyl 2-{3-[4-(2,4-diheptyl-3,5-dioxo-2,3,4,5-tetrahydro-[1,2,4]triazin-6-ylamino)-butyl]-phenoxy}-2-methyl-propionate] were roughly 0.3 µM and roughly 10 µM.
Taken in the same sequence, the figures for `CCCCCCCn1c(=O)c(NCCCCOc2ccc(OC(C)(C)C(=O)OCC)cc2)nn(C)c1=O` [Example 50, Ethyl 2-{4-[4-(4-heptyl-2-methyl-3,5-dioxo-2,3,4,5-tetrahydro-[1,2,4]triazin-6-ylamino)-butoxy]-phenoxy}-2-methyl-propionate] were greater than 10 µM and roughly 10 µM.
